Measured values: patent publication US5916774A, “D-aminoacylase” (Daicel Chemical Industries, Ltd., priority 1997, dated 1999)

tested on: D-aminoacylase derived from Amycolatopsis orientalis IFO 12806; test: Substrate specificity of D-aminoacylase; type: biochemical; conditions: 20 mM substrate, pH 7.5, 30° C., 3 h
Description: The enzymatic reaction was carried out in a total volume of 1.0 ml of a reaction system containing 20 mM N-acetyl-D-methionine (Sigma), 50 mM Tris-HCl buffer (pH 7.5), 1 mM CoCl2, and 100 μl of the enzyme solution at 30° C. for 60 min. The reaction was terminated by adding 0.5 ml of a TCA reaction terminating solution according to Tsai et al. (containing 0.11M trichloroacetic acid, 0.22M sodium acetate, and 0.33M acetic acid).
(§1) The enzyme activity was assayed according to TNBS method [Tokuyama, S., Hatano, K. and Takahashi, T., Biosci. Biotech. Biochem. 58, pp24 (1994)]. That is, a sample solution containing amino acid was added to 0.5 ml of the solution (C) (0.1M Na2 B4 O7), and brought up to a volume of 1.0 ml. To this mixture was added […] of 0.11M TNBS solution, and the resulting mixture was quickly mixed. Five min thereafter, absorption at 420 nm was measured.
Substrate specificity of this enzyme was compared to, taking substrate specificity for N-acetyl-D-methionine as 100%, N-acetyl-D-valine, N-acetyl-D-phenylalanine, N-acetyl-D-leucine, N-acetyl-D-tryptophan, N-acetyl-D-asparagine, N-acetyl-L-methionine, N-acetyl-D-leucine, and N-acetyl-L-valine. The enzyme activity was assayed in 50 mM Tris-HCl buffer (pH 7.5) containing 100 μl of the enzyme solution and 20 mM of each substrate (total volume of 1.0 ml) at 30° C. for 3 h.

Action of the enzyme on the substrate | SMILES
acted somewhat | CC(=O)N[C@H](C)C(=O)O [N-acetyl-D-alanine]
acted somewhat | CC(=O)N[C@H](CC(N)=O)C(=O)O [N-acetyl-D-asparagine]
acted well | CC(=O)N[C@H](CC(C)C)C(=O)O [N-acetyl-D-leucine]
acted well | CSCC[C@@H](NC(C)=O)C(=O)O [N-acetyl-D-methionine]
acted somewhat | CC(=O)N[C@H](Cc1ccccc1)C(=O)O [N-acetyl-D-phenylalanine]
acted somewhat | CC(=O)N[C@H](Cc1c[nH]c2ccccc12)C(=O)O [N-acetyl-D-tryptophan]
did not act | CC(=O)N[C@@H](CC(C)C)C(=O)O [N-acetyl-L-leucine]
did not act | CSCC[C@H](NC(C)=O)C(=O)O [N-acetyl-L-methionine]
did not act | CC(=O)N[C@H](C(=O)O)C(C)C [N-acetyl-L-valine]

same assay, conditions: N-acetyl-D-methionine taken as 100%; 20 mM substrate, 50 mM Tris-HCl pH 7.5, 30° C., 3 h

Specific activity (%) | SMILES
16 | CC(=O)N[C@H](C)C(=O)O [N-acetyl-D-alanine]
19 | CC(=O)N[C@H](CC(N)=O)C(=O)O [N-acetyl-D-asparagine]
78 | CC(=O)N[C@H](CC(C)C)C(=O)O [N-acetyl-D-leucine]
100 | CSCC[C@@H](NC(C)=O)C(=O)O [N-acetyl-D-methionine]
36 | CC(=O)N[C@H](Cc1ccccc1)C(=O)O [N-acetyl-D-phenylalanine]
54 | CC(=O)N[C@H](Cc1c[nH]c2ccccc12)C(=O)O [N-acetyl-D-tryptophan]
33 | CC(=O)N[C@@H](C(=O)O)C(C)C [N-acetyl-D-valine]
0 | CC(=O)N[C@@H](CC(C)C)C(=O)O [N-acetyl-L-leucine]
0 | CSCC[C@H](NC(C)=O)C(=O)O [N-acetyl-L-methionine]
0 | CC(=O)N[C@H](C(=O)O)C(C)C [N-acetyl-L-valine]

tested on: D-aminoacylase derived from Amycolatopsis orientalis IFO 12806; test: Influences of various metallic salts and reagents on D-aminoacylase activity; type: biochemical; conditions: not given
Description: as §1
In Table 5, the term "PCMB" means p-chloromercuribenzoic acid.

SMILES | Effect on enzyme activity | Specific activity (%), concentration 1 mM [%] | Specific activity (%), concentration 10 mM [%]
O=C(O)CN(CCN(CC(=O)O)CC(=O)O)CC(=O)O [EDTA.2Na, reference compound] | inhibited | 0 | 0
[Cl-].[Na+] [Na^+ (NaCl), NaCl] | – | 84 | 152
O=C(O)CI [iodoactate, iodoacetate, reference compound] | inhibited | 64 | 50

same assay, conditions: 1 mM

SMILES | Effect on enzyme activity
[Ca+2].[Cl-].[Cl-] [Ca^2+ (CaCl2), CaCl2] | significantly promoted
[Cl-].[Cl-].[Co+2] [Co^2+ (CoCl2), CoCl2] | significantly promoted

same assay, conditions: 10 mM

SMILES | Effect on enzyme activity
[Ca+2].[Cl-].[Cl-] [Ca^2+ (CaCl2), CaCl2] | did not inhibit
[Cl-].[Cl-].[Co+2] [Co^2+ (CoCl2), CoCl2] | did not do so

same assay, conditions: concentration not given

SMILES | Effect on enzyme activity
[Cl][Cu][Cl] [Cu^2+ (CuCl2), CuCl2] | inhibited
[Cl][Hg][Cl] [Hg^2+ (HgCl2), HgCl2] | inhibited
O=C(O)c1cc[c]([Hg][Cl])cc1 [PCMB, p-chloromercuribenzoic acid, reference compound] | inhibited

same assay, conditions: metallic salt 1 mM; no addition = 100

SMILES | Specific activity (%), concentration 1 mM [%]
[Ca+2].[Cl-].[Cl-] [Ca^2+ (CaCl2), CaCl2] | 180
[Cl-].[Cl-].[Co+2] [Co^2+ (CoCl2), CoCl2] | 208
[Cl][Cu][Cl] [Cu^2+ (CuCl2), CuCl2] | 0
[Cl][Fe][Cl] [F^e2+ (FeCl2), FeCl2] | 52
[Cl][Hg][Cl] [Hg^2+ (HgCl2), HgCl2] | 0
[Cl-].[K+] [K^+ (KCl), KCl] | 52
[Cl-].[Cl-].[Mg+2] [Mg^2+ (MgCl2), MgCl2] | 128
[Cl][Mn][Cl] [Mn^2+ (MnCl2), MnCl2] | 96
[Cl][Ni][Cl] [Ni^2+ (NiCl2), NiCl2] | 48
[Cl-].[Cl-].[Zn+2] [Zn^2+ (ZnCl2), ZnCl2] | 0

same assay, conditions: metallic salt 1 mM; pH 7.5, 30° C., 60 min; no addition 0.25

SMILES | Methionine produced, concentration 1 mM [mM]
[Ba+2].[Cl-].[Cl-] [Ba^2+ (BaCl2), BaCl2] | 0.19
[Ca+2].[Cl-].[Cl-] [Ca^2+ (CaCl2), CaCl2] | 0.45
[Cl-].[Cl-].[Co+2] [Co^2+ (CoCl2), CoCl2] | 0.52
[Cl][Cu][Cl] [Cu^2+ (CuCl2), CuCl2] | 0
[Cl][Fe][Cl] [F^e2+ (FeCl2), FeCl2] | 0.13
[Cl][Hg][Cl] [Hg^2+ (HgCl2), HgCl2] | 0
[Cl-].[K+] [K^+ (KCl), KCl] | 0.13
[Cl-].[Cl-].[Mg+2] [Mg^2+ (MgCl2), MgCl2] | 0.32
[Cl][Mn][Cl] [Mn^2+ (MnCl2), MnCl2] | 0.24
[Cl][Ni][Cl] [Ni^2+ (NiCl2), NiCl2] | 0.12
[Cl-].[Cl-].[Zn+2] [Zn^2+ (ZnCl2), ZnCl2] | 0

same assay, conditions: metallic salt 10 mM; no addition = 100

SMILES | Specific activity (%), concentration 10 mM [%]
[Ba+2].[Cl-].[Cl-] [Ba^2+ (BaCl2), BaCl2] | 176
[Ca+2].[Cl-].[Cl-] [Ca^2+ (CaCl2), CaCl2] | 208
[Cl-].[Cl-].[Co+2] [Co^2+ (CoCl2), CoCl2] | 108
[Cl][Cu][Cl] [Cu^2+ (CuCl2), CuCl2] | 0
[Cl][Fe][Cl] [F^e2+ (FeCl2), FeCl2] | 0
[Cl][Hg][Cl] [Hg^2+ (HgCl2), HgCl2] | 0
[Cl-].[K+] [K^+ (KCl), KCl] | 84
[Cl-].[Cl-].[Mg+2] [Mg^2+ (MgCl2), MgCl2] | 92
[Cl][Mn][Cl] [Mn^2+ (MnCl2), MnCl2] | 0
[Cl][Ni][Cl] [Ni^2+ (NiCl2), NiCl2] | 68
[Cl-].[Cl-].[Zn+2] [Zn^2+ (ZnCl2), ZnCl2] | 0

same assay, conditions: metallic salt 10 mM; pH 7.5, 30° C., 60 min; no addition 0.25

SMILES | Methionine produced, concentration 10 mM [mM]
[Ba+2].[Cl-].[Cl-] [Ba^2+ (BaCl2), BaCl2] | 0.44
[Ca+2].[Cl-].[Cl-] [Ca^2+ (CaCl2), CaCl2] | 0.52
[Cl-].[Cl-].[Co+2] [Co^2+ (CoCl2), CoCl2] | 0.27
[Cl][Cu][Cl] [Cu^2+ (CuCl2), CuCl2] | 0
[Cl][Fe][Cl] [F^e2+ (FeCl2), FeCl2] | 0
[Cl][Hg][Cl] [Hg^2+ (HgCl2), HgCl2] | 0
[Cl-].[K+] [K^+ (KCl), KCl] | 0.21
[Cl-].[Cl-].[Mg+2] [Mg^2+ (MgCl2), MgCl2] | 0.32
[Cl][Mn][Cl] [Mn^2+ (MnCl2), MnCl2] | 0
[Cl][Ni][Cl] [Ni^2+ (NiCl2), NiCl2] | 0.17
[Cl-].[Cl-].[Zn+2] [Zn^2+ (ZnCl2), ZnCl2] | 0

same assay, conditions: pH 7.5

SMILES | Methionine produced, concentration 1 mM [mM] | Methionine produced, concentration 10 mM [mM]
O=C(O)CN(CCN(CC(=O)O)CC(=O)O)CC(=O)O [EDTA.2Na, reference compound] | 0 | 0
[Cl-].[Na+] [Na^+ (NaCl), NaCl] | 0.21 | 0.36
O=C(O)CI [iodoactate, iodoacetate, reference compound] | 0.14 | 0.11

same assay, conditions: reagent 1 mM; no addition = 100

SMILES | Specific activity (%), concentration 1 mM [%]
CCN1C(=O)C=CC1=O [N-ethyl-maleimide, reference compound] | 45
O=C(O)c1cc[c]([Hg][Cl])cc1 [PCMB, p-chloromercuribenzoic acid, reference compound] | 0
OC(CS)C(O)CS (stereo not drawn) [dothiothreito, reference compound] | 77

same assay, conditions: reagent 1 mM; pH 7.5, 30° C., 60 min; no addition 0.22

SMILES | Methionine produced, concentration 1 mM [mM]
CCN1C(=O)C=CC1=O [N-ethyl-maleimide, reference compound] | 0.1
O=C(O)c1cc[c]([Hg][Cl])cc1 [PCMB, p-chloromercuribenzoic acid, reference compound] | 0
OC(CS)C(O)CS (stereo not drawn) [dothiothreito, reference compound] | 0.17

same assay, conditions: reagent 10 mM; no addition = 100

SMILES | Specific activity (%), concentration 10 mM [%]
CCN1C(=O)C=CC1=O [N-ethyl-maleimide, reference compound] | 0
O=C(O)c1cc[c]([Hg][Cl])cc1 [PCMB, p-chloromercuribenzoic acid, reference compound] | 0
OC(CS)C(O)CS (stereo not drawn) [dothiothreito, reference compound] | 68

same assay, conditions: reagent 10 mM; pH 7.5, 30° C., 60 min; no addition 0.22

SMILES | Methionine produced, concentration 10 mM [mM]
CCN1C(=O)C=CC1=O [N-ethyl-maleimide, reference compound] | 0
O=C(O)c1cc[c]([Hg][Cl])cc1 [PCMB, p-chloromercuribenzoic acid, reference compound] | 0
OC(CS)C(O)CS (stereo not drawn) [dothiothreito, reference compound] | 0.15

tested on: Amycolatopsis orientalis IFO 12806; test: Induction of D-aminoacylase production by inducers in culture; type: cell-based; conditions: DL-valine compared with N-acetyl-DL-methionine as inducer
Description: This microbial strain was cultured in ISP-2 liquid medium as used in Example 1 supplemented with or without N-acetyl-DL-methionine or DL-valine (Kanto Kagaku) (0.1% each) as the enzyme inducer with shaking at 160 rpm at 30° C. for 72 h.
After the incubation, the culture was centrifuged at 8000 rpm (7000×g) for 20 min with a Hitachi Koki refrigerated centrifuge to collect microbial cells. The cells were washed with 50 mM Tris-HCl buffer (pH 7.5) and then centrifuged again with the same centrifuge to harvest the cells to be used in the following processes. The cells were stored at -20° C.
The stored cells were suspended in 20 ml of 50 mM Tris-HCl (pH 7.5), ultrasonicated at 190 W for 10 min, and centrifuged with a Hitachi Koki refrigerated centrifuge at 14,000 rpm (20,000×g) for 20 min. The supernatant thus obtained was used as the crude enzyme solution.
The enzymatic reaction was performed in a total volume of 1.0 ml of a reaction system containing 20 mM N-acetyl-D-methionine, 50 mM Tris-HCl buffer (pH 7.5), 1 mM CoCl2, and 100 μl of the enzyme solution at 30° C. for 10 min. The reaction was terminated by adding a TCA reaction terminating solution.

Induction of D-aminoacylase | SMILES
induced more strongly | CC(C)C(N)C(=O)O (racemic) [DL-valine]

same assay, conditions: crude enzyme solution of cells cultured with 0.1% inducer in ISP-2 medium, 30° C., 72 h

SMILES | Specific activity [mU/mg] | Total activity [U]
CC(C)C(N)C(=O)O (racemic) [DL-valine] | 144.0 | 36.0
CSCCC(NC(C)=O)C(=O)O (racemic) [N-acetyl-DL-methionine] | 36.0 | 5.1

same assay, conditions: crude enzyme solution of cells cultured with 0.1% inducer in ISP-2 medium, 30° C., 72 h; 20 mM N-acetyl-D-methionine, pH 7.5, 10 min

SMILES | Activity [U/ml]
CC(C)C(N)C(=O)O (racemic) [DL-valine] | 3.9
CSCCC(NC(C)=O)C(=O)O (racemic) [N-acetyl-DL-methionine] | 1.6
